Assay results reported in PubChem BioAssay (NCI).
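Exposure lasted 48 hours, with cells grown in 96-well plates and compounds tested at five concentrations. Definition used: TGI = concentration required for complete inhibition of growth.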

Key:
Test in all cases: inhibition of tumour cell growth, NCI panel, 48 h
A549 NSCLC = test system: A549 NSCLC
ACHN renal = test system: ACHN renal
CAKI-1 renal = test system: CAKI-1 renal
COLO 205 colon = test system: COLO 205 colon
DU-145 prostate = test system: DU-145 prostate
EKVX NSCLC = test system: EKVX NSCLC
HCT-116 colon = test system: HCT-116 colon
HCT-15 colon = test system: HCT-15 colon
HOP-92 NSCLC = test system: HOP-92 NSCLC
HT29 colon = test system: HT29 colon
IGROV1 ovarian = test system: IGROV1 ovarian
KM12 colon = test system: KM12 colon
M14 melanoma = test system: M14 melanoma
MDA-MB-231 breast = test system: MDA-MB-231 breast
MDA-MB-435 = test system: MDA-MB-435
MDA-N = test system: MDA-N
NCI-H226 lung = test system: NCI-H226 lung
NCI-H23 lung = test system: NCI-H23 lung
NCI/ADR-RES ovarian = test system: NCI/ADR-RES ovarian
OVCAR-3 ovarian = test system: OVCAR-3 ovarian
OVCAR-4 ovarian = test system: OVCAR-4 ovarian
OVCAR-5 ovarian = test system: OVCAR-5 ovarian
OVCAR-8 ovarian = test system: OVCAR-8 ovarian
PC-3 prostate = test system: PC-3 prostate
RXF 393 renal = test system: RXF 393 renal
SF-268 CNS = test system: SF-268 CNS
SF-295 CNS = test system: SF-295 CNS
SF-539 CNS = test system: SF-539 CNS
SK-MEL-28 melanoma = test system: SK-MEL-28 melanoma
SK-MEL-5 melanoma = test system: SK-MEL-5 melanoma
SN12C renal = test system: SN12C renal
SNB-19 CNS = test system: SNB-19 CNS
SNB-75 CNS = test system: SNB-75 CNS
SW-620 colon = test system: SW-620 colon
TK-10 renal = test system: TK-10 renal
U251 CNS = test system: U251 CNS
786-0 renal = test system: 786-0 renal
BT-549 breast = test system: BT-549 breast
CCRF-CEM leukemia = test system: CCRF-CEM leukemia
HCC-2998 colon = test system: HCC-2998 colon
HL-60(TB) leukemia = test system: HL-60(TB) leukemia
HOP-62 NSCLC = test system: HOP-62 NSCLC
HS 578T breast = test system: HS 578T breast
LOX IMVI melanoma = test system: LOX IMVI melanoma
MCF7 breast = test system: MCF7 breast
MOLT-4 leukemia = test system: MOLT-4 leukemia
NCI-H460 lung = test system: NCI-H460 lung
NCI-H522 lung = test system: NCI-H522 lung
SK-MEL-2 melanoma = test system: SK-MEL-2 melanoma
SK-OV-3 ovarian = test system: SK-OV-3 ovarian
UACC-257 melanoma = test system: UACC-257 melanoma
UACC-62 melanoma = test system: UACC-62 melanoma
UO-31 renal = test system: UO-31 renal

Compound COC(=O)C1ON2C(C1C(=O)OC)C(C)(C)N(O)C2(C)C (centres undefined) has a TGI (A549 NSCLC) of over 10 µM, a TGI (ACHN renal) of over 10 µM and a TGI (CAKI-1 renal) of over 10 µM. The TGI (COLO 205 colon) was over 10 µM, the TGI (DU-145 prostate) was over 10 µM and the TGI (EKVX NSCLC) was over 10 µM. The TGI (HCT-116 colon) was over 10 µM, the TGI (HCT-15 colon) was over 10 µM and the TGI (HOP-92 NSCLC) was over 10 µM. It also gave a TGI (HT29 colon) of over 10 µM, a TGI (IGROV1 ovarian) of over 10 µM and a TGI (KM12 colon) of over 10 µM. It also gave a TGI (M14 melanoma) of over 10 µM, a TGI (MDA-MB-231 breast) of over 10 µM and a TGI (MDA-MB-435) of over 10 µM. For the same compound, the TGI (MDA-N) was over 10 µM, the TGI (NCI-H226 lung) was over 10 µM and the TGI (NCI-H23 lung) was over 10 µM. It also gave a TGI (NCI/ADR-RES ovarian) of over 10 µM, a TGI (OVCAR-3 ovarian) of over 10 µM and a TGI (OVCAR-4 ovarian) of over 10 µM. For the same compound, the TGI (OVCAR-5 ovarian) was over 10 µM, the TGI (OVCAR-8 ovarian) was over 10 µM and the TGI (PC-3 prostate) was over 10 µM. The TGI (RXF 393 renal) was over 10 µM, the TGI (SF-268 CNS) was over 10 µM and the TGI (SF-295 CNS) was over 10 µM. The TGI (SF-539 CNS) was over 10 µM, the TGI (SK-MEL-28 melanoma) was over 10 µM and the TGI (SK-MEL-5 melanoma) was over 10 µM. The TGI (SN12C renal) was over 10 µM, the TGI (SNB-19 CNS) was over 10 µM and the TGI (SNB-75 CNS) was over 10 µM. The TGI (SW-620 colon) was over 10 µM, the TGI (TK-10 renal) was over 10 µM and the TGI (U251 CNS) was over 10 µM.

Work on NC(=S)N/N=c1\cc(C(=O)Nc2ccc([N+](=O)[O-])cc2[N+](=O)[O-])oc2ccccc12 yielded a TGI (786-0 renal) of over 100 µM, a TGI (A549 NSCLC) of over 100 µM and a TGI (ACHN renal) of over 100 µM. The TGI (BT-549 breast) was over 100 µM, the TGI (CAKI-1 renal) was over 100 µM and the TGI (CCRF-CEM leukemia) was over 100 µM. For the same compound, the TGI (COLO 205 colon) was over 100 µM, the TGI (DU-145 prostate) was over 100 µM and the TGI (EKVX NSCLC) was over 100 µM. For the same compound, the TGI (HCC-2998 colon) was over 100 µM, the TGI (HCT-116 colon) was over 100 µM and the TGI (HCT-15 colon) was over 100 µM. It also gave a TGI (HL-60(TB) leukemia) of over 100 µM, a TGI (HOP-62 NSCLC) of over 100 µM and a TGI (HOP-92 NSCLC) of over 100 µM. For the same compound, the TGI (HS 578T breast) was over 100 µM, the TGI (HT29 colon) was over 100 µM and the TGI (IGROV1 ovarian) was over 100 µM. For the same compound, the TGI (KM12 colon) was over 100 µM, the TGI (LOX IMVI melanoma) was over 100 µM and the TGI (M14 melanoma) was over 100 µM. For the same compound, the TGI (MCF7 breast) was over 100 µM, the TGI (MDA-MB-231 breast) was over 100 µM and the TGI (MDA-MB-435) was over 100 µM. The TGI (MDA-N) was over 100 µM, the TGI (MOLT-4 leukemia) was over 100 µM and the TGI (NCI-H226 lung) was over 100 µM. For the same compound, the TGI (NCI-H23 lung) was over 100 µM, the TGI (NCI-H460 lung) was over 100 µM and the TGI (NCI-H522 lung) was over 100 µM. It also gave a TGI (NCI/ADR-RES ovarian) of over 100 µM, a TGI (OVCAR-3 ovarian) of over 100 µM and a TGI (OVCAR-4 ovarian) of over 100 µM. The TGI (OVCAR-5 ovarian) was over 100 µM, the TGI (OVCAR-8 ovarian) was over 100 µM and the TGI (PC-3 prostate) was over 100 µM. For the same compound, the TGI (RXF 393 renal) was over 100 µM, the TGI (SF-268 CNS) was over 100 µM and the TGI (SF-295 CNS) was over 100 µM. It also gave a TGI (SF-539 CNS) of over 100 µM, a TGI (SK-MEL-2 melanoma) of over 100 µM and a TGI (SK-MEL-28 melanoma) of over 100 µM. The TGI (SK-MEL-5 melanoma) was over 100 µM, the TGI (SK-OV-3 ovarian) was over 100 µM and the TGI (SN12C renal) was over 100 µM. The TGI (SNB-19 CNS) was over 100 µM, the TGI (SNB-75 CNS) was over 100 µM and the TGI (SW-620 colon) was over 100 µM. It also gave a TGI (TK-10 renal) of over 100 µM, a TGI (U251 CNS) of over 100 µM and a TGI (UACC-257 melanoma) of over 100 µM. It also gave a TGI (UACC-62 melanoma) of over 100 µM and a TGI (UO-31 renal) of over 100 µM.
